Literature values, collected in US6124256A, “Method for the prevention of a patient's fibroproliferative vasculopathy” (priority 1998, dated 2000).

Experiments:
hSSTR1 = target: T1, hSSTR1 (Homo sapiens, UniProt P30872); settings: human receptor in transfected CHO cell lines; read-out: binding affinities Ki hSSTR1
T1 construct: expressed in transfected cells; host or cells: CHO

dysplastic lesions = settings: arterial, venous and vascular transplant models, various animal species; results inconsistent between models
restenosis = settings: randomized placebo controlled clinical trials; quantitated by angiography or as clinical events
SSTR2 [1] = target: T2, SSTR2 (Homo sapiens, UniProt P30874)
Target sequence in this assay (P30874 whole entry, species assumed): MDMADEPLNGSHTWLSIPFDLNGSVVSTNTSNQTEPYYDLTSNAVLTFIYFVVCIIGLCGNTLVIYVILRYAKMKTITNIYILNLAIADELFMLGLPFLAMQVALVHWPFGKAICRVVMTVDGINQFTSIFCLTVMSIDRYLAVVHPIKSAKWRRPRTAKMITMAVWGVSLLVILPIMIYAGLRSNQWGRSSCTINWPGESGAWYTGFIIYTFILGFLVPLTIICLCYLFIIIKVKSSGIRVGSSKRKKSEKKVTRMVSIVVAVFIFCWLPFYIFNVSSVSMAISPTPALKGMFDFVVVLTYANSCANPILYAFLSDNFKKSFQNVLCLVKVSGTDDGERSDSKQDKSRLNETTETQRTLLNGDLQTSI

hSSTR3 [2] = target: T3, hSSTR3 (Homo sapiens, UniProt P32745)
T3 sequence (P32745 whole entry): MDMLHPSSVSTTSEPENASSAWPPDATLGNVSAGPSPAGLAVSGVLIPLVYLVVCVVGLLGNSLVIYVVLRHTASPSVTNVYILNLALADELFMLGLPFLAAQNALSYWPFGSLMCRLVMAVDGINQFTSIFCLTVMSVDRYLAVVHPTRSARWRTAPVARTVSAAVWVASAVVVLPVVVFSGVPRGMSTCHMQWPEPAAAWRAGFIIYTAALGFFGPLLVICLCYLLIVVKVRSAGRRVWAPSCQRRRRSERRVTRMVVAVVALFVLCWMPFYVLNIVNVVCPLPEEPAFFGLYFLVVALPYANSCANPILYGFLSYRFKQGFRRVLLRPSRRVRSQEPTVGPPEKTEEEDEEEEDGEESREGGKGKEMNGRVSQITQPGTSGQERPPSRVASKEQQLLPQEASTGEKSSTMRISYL

[3] = test system: SSTR3, the rodent receptor
hSSTR4 = target: T4, hSSTR4 (Homo sapiens, UniProt P31391); settings: human receptor in transfected CHO cell lines; read-out: binding affinities Ki hSSTR4
T4 construct: expressed in transfected cells; host or cells: CHO
T4 sequence (P31391 whole entry): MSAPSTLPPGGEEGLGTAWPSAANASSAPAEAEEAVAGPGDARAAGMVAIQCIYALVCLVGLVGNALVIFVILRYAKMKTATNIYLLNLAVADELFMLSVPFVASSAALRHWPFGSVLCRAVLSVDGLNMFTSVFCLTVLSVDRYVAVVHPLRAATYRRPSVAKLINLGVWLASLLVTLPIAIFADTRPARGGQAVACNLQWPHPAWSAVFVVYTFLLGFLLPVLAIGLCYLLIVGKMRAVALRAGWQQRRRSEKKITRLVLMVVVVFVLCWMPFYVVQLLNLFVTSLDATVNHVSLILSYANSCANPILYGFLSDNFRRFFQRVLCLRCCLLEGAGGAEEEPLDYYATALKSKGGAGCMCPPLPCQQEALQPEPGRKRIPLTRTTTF

hSTR5 = target: T5, hSTR5 (Homo sapiens, UniProt P35346); settings: human receptor in transfected CHO cell lines; read-out: binding affinities Ki hSTR5
T5 construct: expressed in transfected cells; host or cells: CHO
T5 sequence (P35346 whole entry): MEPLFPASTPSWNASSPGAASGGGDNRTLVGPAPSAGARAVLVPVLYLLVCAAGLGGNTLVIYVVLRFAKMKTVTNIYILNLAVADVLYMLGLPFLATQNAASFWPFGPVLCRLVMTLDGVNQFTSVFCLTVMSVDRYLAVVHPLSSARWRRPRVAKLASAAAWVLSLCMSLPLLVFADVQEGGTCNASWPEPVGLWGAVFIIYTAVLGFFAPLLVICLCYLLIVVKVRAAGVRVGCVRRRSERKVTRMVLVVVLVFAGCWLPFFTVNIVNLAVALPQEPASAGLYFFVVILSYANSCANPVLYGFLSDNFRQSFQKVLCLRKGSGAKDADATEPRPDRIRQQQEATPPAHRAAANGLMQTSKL

SSTR2 [4] = target: T2, SSTR2; set-up: expressed in transfected cells; host or cells: CHO; settings: human receptor in transfected CHO cell lines; read-out: binding affinities Ki hSSTR2
Target sequence in this assay (P30874 whole entry): as the sequence (P30874 whole entry, species assumed) above

hSSTR3 [5] = target: T3, hSSTR3; set-up: expressed in transfected cells; host or cells: CHO; settings: human receptor in transfected CHO cell lines; read-out: binding affinities Ki hSSTR3

T1 sequence (P30872 whole entry): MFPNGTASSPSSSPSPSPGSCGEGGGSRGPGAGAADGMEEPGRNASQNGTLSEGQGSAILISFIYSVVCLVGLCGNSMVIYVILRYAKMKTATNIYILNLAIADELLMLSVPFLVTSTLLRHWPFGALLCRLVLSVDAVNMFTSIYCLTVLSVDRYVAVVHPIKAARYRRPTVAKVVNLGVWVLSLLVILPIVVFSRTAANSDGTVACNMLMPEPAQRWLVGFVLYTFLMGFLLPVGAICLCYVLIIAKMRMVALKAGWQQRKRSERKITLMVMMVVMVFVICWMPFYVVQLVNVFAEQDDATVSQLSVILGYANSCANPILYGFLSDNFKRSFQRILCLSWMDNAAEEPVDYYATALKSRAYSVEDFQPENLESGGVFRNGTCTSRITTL

binding to human SSTR3 (in words) (hSSTR3 [2]) | affinity for the rodent SSTR3 receptor (in words) [3] | Ki (hSSTR4) [nM] | Ki (hSTR5) [nM] | Ki (SSTR2 [4]) [nM] | Ki (hSSTR3 [5]) [nM] | Compound | Ki (hSSTR1) [nM] | formation of dysplastic lesions (dysplastic lesions) | prevention of restenosis after percutaneous transluminal angioplasty (restenosis) | affinity to SSTR2 (in words) (SSTR2 [1])
 |  |  |  |  |  | CC(C)[C@@H]1NC(=O)[C@H](CCCCN)NC(=O)[C@@H](Cc2c[nH]c3ccccc23)NC(=O)[C@H](Cc2ccc(O)cc2)NC(=O)[C@@H](NC(=O)[C@H](N)Cc2ccc3ccccc3c2)CSSC[C@@H](C(=O)N[C@H](C(N)=O)[C@@H](C)O)NC1=O [Lanreotide, lanreotide] | > 1000 | prevents the formation of dysplastic lesions | in some studies has been shown to prevent restenosis | high affinity
binds well | only moderate affinity |  |  |  |  | C[C@@H](O)[C@@H]1NC(=O)[C@H](CCCCN)NC(=O)[C@@H](Cc2c[nH]c3ccccc23)NC(=O)[C@H](Cc2ccccc2)NC(=O)[C@@H](NC(=O)[C@H](N)Cc2ccccc2)CSSC[C@@H](C(=O)N[C@H](CO)[C@@H](C)O)NC1=O [Octeoride, octreotide] |  | prevents the formation of dysplastic lesions | the same therapeutic response has not been achieved | high affinity
 |  | 4.3 | > 1000 | > 1000 | > 1000 | desAA^1.2.5 [D-Trp^6 -N-p-isopropyl-4-aminomethyl-L-phenylalanine]-SST14 [DADI-SST14] | 3.2 |  |  | 
